Assay results reported in patent EP4768499A1, “MACROCYCLIC PEPTIDE COMPOUND HAVING CELL MEMBRANE PERMEABILITY AND METABOLIC STABILITY, AND LIBRARY CONTAINING SAME” (Chugai Seiyaku Kabushiki Kaisha, priority 2023, dated 2025).
Starred links: 1 amine or outer side, 2 acyl side, 3 side chain; linkers in the order of their positions; H or OH if unused. Positions of bridges follow the written chain, without caps; N, C: chain ends. Non-standard residues stand in square brackets, D forms with d. Residues, ends and D or L forms follow the SMILES beside them. *: point of attachment. NMeF = CN[C@@H](Cc1ccccc1)C(=O)O; NMeGABA = CN(CCCC(=O)[*:2])[*:1]; NMeI = CC[C@H](C)[C@H](NC)C(=O)O; hPhe = N[C@@H](CCc1ccccc1)C(=O)O; NMeβAla = CN(CCC(=O)[*:2])[*:1]; NMeD = CN[C@@H](CC(=O)O)C(=O)O; NMeL = CN[C@@H](CC(C)C)C(=O)O; NMeV = CN[C@H](C(=O)O)C(C)C; d(β3hA) = C[C@@H](N)CC(=O)O; NMeAbu = CC[C@H](NC)C(=O)O; NMeA = CN[C@@H](C)C(=O)O; Piperidide = C1CCN(*)CC1; Abu = CC[C@H](N)C(=O)O; Sar = CNCC(=O)O; tBu = CC(C)(C)*

How the values were obtained:
[1] = Membrane permeability test using Caco-2 cells with preincubation; assay type: in vitro ADME; details: Caco-2; preincubation 20 to 24 hours; Apical FaSSIF/HBSS pH 6.0, Basal HBSS 4% BSA pH 7.4; 180 minutes; read-out: Caco2 Papp
Method: (§1) The permeability coefficient (Caco-2 Papp (cm/sec)) is calculated using a numerical expression 1. [Expression 1] Papp = (1)/(C1 (0) × S) × (dQ)/(dt) [formula] dQ/dt represents the permeation rate of drug (the amount of drug appearing on the Basal side per unit time), S represents the total surface area of cells, and C1(0) represents the concentration of drug added on the Apical side.
(§2) Using a mixed medium of FaSSIF containing 1% DMSO and DMEM as the apical medium, and DMEM as the basal medium, Caco-2 cells and peptide compounds are preincubated for 20 to 24 hours under conditions of 5% CO2, 37°C, and 80 rpm. Afterward, the culture medium on the Apical side and the Basal side are aspirated and washed, the peptide compound was added to a FaSSIF/HBSS buffer solution containing 1% DMSO (1% DMSO) (pH 6.0) at the Apical side, a HBSS buffer solution containing 4% BSA (pH 7.4) was added to the Basal side, and measurement of membrane permeability is started. Each well is shaken under 5% CO2 at 37°C and 80 rpm, and at 180 minutes after the start of shaking, a sample on the Basal side is collected. The amount of peptide compounds in the sample was measured using LCMS, and the membrane permeability coefficient was calculated from the permeation amount (Table 7). When calculating the membrane permeability coefficient (Papp) from the permeation amount, the following expression can be used. Papp = (dQ)/(dt) × (1)/(C1 (0) × S) [formula]
(§3) dQ/dt represents the permeation rate of drug (the amount of drug appearing on the Basal side per unit time), C1(0) represents the concentration of drug added on the Apical side, and S represents the total surface area of cells.

[2] = test system: Caco-2 cells; test: as above; assay type: in vitro ADME; details: preincubation 20 to 24 hours; for Caco2 Papp (10^-6 cm/sec): Caco-2 cells, apical FaSSIF/HBSS 1% DMSO pH 6.0, basal HBSS 4% BSA pH 7.4, basal sample at 180 minutes; for Caco2 Papp: Apical FaSSIF/HBSS pH 6.0, Basal HBSS 4% BSA pH 7.4, 180 minutes
Method: as §1, §2, §3

[3] = Metabolic stability test: liver microsomal stability assay; assay type: in vitro ADME, mouse; details: mouse liver microsomes 0.5 mg protein/mL, compound 1 µM; for microsomal CLint at 1 µM: male, pH 7.4, presence of NADPH, read-out: Mouse Hepatic Microsome CLh,int NADPH(+); for Mouse Hepatic Microsome CLh,int NADPH(-): absence of NADPH
Method: Under the presence and absence of NADPH, a microsome solution prepared to a concentration of 0.5 mg protein/mL using 100 mM phosphate buffer (pH 7.4) with mouse liver microsomes (male, Corning Incorporated, USA) and the compound at a concentration of 1 µM were subjected to a metabolic reaction for 22 minutes, 44 minutes, or 66 minutes. Protein removal processing was performed over time using acetonitrile, and the remaining amount of unchanged compound was analyzed using LCMS to calculate the intrinsic hepatic clearance (CLh, int) (Table 6).

SMILES | Papp A→B [1] [×10⁻⁶ cm/s] | Caco2 Papp (10^-6 cm/sec) [2] | microsomal CLint at 1 µM [3] [µL/min/mg] | Mouse Hepatic Microsome CLh,int NADPH(-) [3] [µL/min/mg Protein] | Caco2 Papp [2]
CC[C@H](C)[C@H]1C(=O)N[C@@H](Cc2ccccc2)C(=O)N2CCC[C@H]2C(=O)N(C)[C@@H](CC(C)C)C(=O)N[C@@H](COC(C)(C)C)C(=O)N(C)[C@@H](Cc2ccccc2)C(=O)N[C@@H]([C@@H](C)O)C(=O)N(C)[C@@H](CC)C(=O)N2CCC[C@H]2C(=O)N(C)[C@@H](CC(C)C)C(=O)N(C)[C@@H](C(C)C)C(=O)N[C@H](C(=O)N2CCCCC2)CC(=O)N(C)CCCC(=O)N(C)[C@@H](CC(C)C)C(=O)N1C [pd001] ([NMeGABA][NMeL][NMeI]FP[NMeL]S(tBu)[NMeF]T[NMeAbu]P[NMeL][NMeV]D-Piperidide; lactam N-14) | 0.94 | 0.94 10^-6 cm/sec | 34.2 | 29.6 | 
CC[C@H](C)[C@@H]1NC(=O)[C@@H]2CCCN2C(=O)[C@H](CC(C)C)N(C)C(=O)[C@H](Cc2ccccc2)N(C)C(=O)[C@H]([C@@H](C)CC)N(C)C(=O)[C@H]([C@@H](C)O)NC(=O)[C@H](Cc2ccccc2)N(C)C(=O)[C@H](CC)N(C)C(=O)[C@H](C(C)C)NC(=O)[C@H](CC)N(C)C(=O)[C@H](CC(C)C)N(C)C(=O)[C@H](C)N(C)C(=O)C[C@@H](C(=O)N2CCCCC2)NC(=O)[C@H](C(C)C)N(C)C1=O [pd002] ([NMeA][NMeL][NMeAbu]V[NMeAbu][NMeF]T[NMeI][NMeF][NMeL]PI[NMeV]D-Piperidide; lactam N-14) | 0.39 | 0.39 10^-6 cm/sec | 34.2 | 30.1 | 
CC[C@H](C)[C@H]1C(=O)N[C@@H]([C@@H](C)O)C(=O)N(C)CC(=O)N(C)[C@@H](CC(C)C)C(=O)N(C)[C@@H](Cc2ccccc2)C(=O)N[C@H](C(=O)N2CCCCC2)CC(=O)N(C)[C@@H](C)C(=O)N[C@@H](CC(C)C)C(=O)N(C)[C@@H](Cc2ccccc2)C(=O)N(C)CCC(=O)N(C)[C@@H](CC(C)C)C(=O)N[C@@H](CC(C)C)C(=O)N(C)[C@@H](C)C(=O)N(C)[C@@H](CC)C(=O)N1C [pd003] ([NMeA]L[NMeF][NMeβAla][NMeL]L[NMeA][NMeAbu][NMeI]T[Sar][NMeL][NMeF]D-Piperidide; lactam N-14) | 0.27 | 0.27 10^-6 cm/sec | 17.9 | 19.0 | 
CC[C@H](C)[C@@H]1NC(=O)[C@H](C)N(C)C(=O)C[C@@H](C(=O)N2CCCCC2)NC(=O)[C@H](CC)N(C)C(=O)[C@H](COC(C)(C)C)NC(=O)[C@H](CC(C)C)N(C)C(=O)[C@H](C)N(C)C(=O)[C@H](CC(C)C)N(C)C(=O)[C@H](Cc2ccccc2)N(C)C(=O)CN(C)C(=O)[C@H]([C@@H](C)O)NC(=O)[C@H](CC(C)C)N(C)C(=O)[C@H](C(C)C)N(C)C(=O)[C@H](Cc2ccccc2)N(C)C1=O [pd004] ([NMeA]I[NMeF][NMeV][NMeL]T[Sar][NMeF][NMeL][NMeA][NMeL]S(tBu)[NMeAbu]D-Piperidide; lactam N-14) | 0.82 | 0.82 10^-6 cm/sec | 36.2 | 27.4 | 
CC[C@@H]1NC(=O)[C@H]([C@@H](C)CC)NC(=O)[C@H](Cc2ccccc2)N(C)C(=O)[C@H](CC(C)C)N(C)C(=O)[C@H](CC(C)C)NC(=O)CCN(C)C(=O)C[C@@H](C(=O)N2CCCCC2)NC(=O)[C@H](C(C)C)NC(=O)[C@H](CC(C)C)N(C)C(=O)[C@H](C)N(C)C(=O)[C@H](C(C)C)NC(=O)[C@H](CC(C)C)N(C)C(=O)[C@H](COC(C)(C)C)NC(=O)[C@H](Cc2ccccc2)N(C)C1=O [pd015] ([NMeβAla]L[NMeL][NMeF]I[Abu][NMeF]S(tBu)[NMeL]V[NMeA][NMeL]VD-Piperidide; lactam N-14) |  | 0.04 10^-6 cm/sec | 32.5 | 26.2 | 0.04 10^-6 cm/sec
CC[C@@H]1NC(=O)[C@H](CC(C)C)N(C)C(=O)[C@H](COC(C)(C)C)NC(=O)[C@H](Cc2ccccc2)N(C)C(=O)[C@H](CC)NC(=O)[C@H](Cc2ccccc2)N(C)C(=O)[C@H](C)N(C)C(=O)[C@H](CC(C)C)N(C)C(=O)[C@H](CC(C)C)NC(=O)CCCN(C)C(=O)C[C@@H](C(=O)N2CCCCC2)NC(=O)[C@H](CC(C)C)N(C)C(=O)[C@H](C(C)C)NC(=O)[C@H](C)N(C)C1=O [pd016] ([NMeGABA]L[NMeL][NMeA][NMeF][Abu][NMeF]S(tBu)[NMeL][Abu][NMeA]V[NMeL]D-Piperidide; lactam N-14) |  | 0.47 10^-6 cm/sec | 49.9 | 32.9 | 0.47 10^-6 cm/sec
CC[C@@H]1NC(=O)CCN(C)C(=O)C[C@@H](C)NC(=O)[C@H](CC(C)C)N(C)C(=O)[C@H]([C@@H](C)O)NC(=O)[C@H](C)N(C)C(=O)[C@H]([C@@H](C)CC)NC(=O)[C@H](CCc2ccccc2)NC(=O)[C@H](CC(C)C)N(C)C(=O)[C@H](C)N(C)C(=O)[C@H](Cc2ccccc2)N(C)C(=O)[C@@H]2CCCN2C(=O)[C@H]([C@@H](C)CC)NC(=O)[C@H](CC(C)C)N(C)C1=O [pd051] (cyclo([Abu][NMeL]IP[NMeF][NMeA][NMeL][hPhe]I[NMeA]T[NMeL][d(β3hA)][NMeβAla])) |  | 0.21 10^-6 cm/sec | 24.6 | 28.8 | 0.21 10^-6 cm/sec
CC[C@H](C)[C@H]1C(=O)N[C@@H](CC(C)C)C(=O)N(C)[C@@H](CC(C)C)C(=O)N(C)[C@@H](C(C)C)C(=O)N(C)[C@@H](C)C(=O)N[C@@H]([C@@H](C)O)C(=O)N(C)[C@@H](CC(C)C)C(=O)N[C@H](C)CC(=O)N(C)CCC(=O)N[C@@H](CCc2ccccc2)C(=O)N(C)[C@@H](CC(C)C)C(=O)N2CCC[C@H]2C(=O)N(C)[C@@H](Cc2ccccc2)C(=O)N(C)[C@@H](C)C(=O)N1C [pd060] (cyclo(L[NMeL][NMeV][NMeA]T[NMeL][d(β3hA)][NMeβAla][hPhe][NMeL]P[NMeF][NMeA][NMeI])) |  | 0.63 10^-6 cm/sec | 32.4 | 38.6 | 0.63 10^-6 cm/sec
CC[C@H](C)[C@@H]1NC(=O)[C@H]([C@@H](C)CC)N(C)C(=O)[C@@H](C)NC(=O)C[C@@H](C(=O)N2CCCCC2)N(C)C(=O)[C@H](C(C)C)NC(=O)[C@H](Cc2ccccc2)N(C)C(=O)[C@H](C(C)C)NC(=O)[C@H](CC(C)C)N(C)C(=O)[C@H](C)NC(=O)CN(C)C(=O)[C@H](CC(C)C)N(C)C(=O)[C@H](C(C)C)NC(=O)[C@H](C)N(C)C(=O)[C@H](Cc2ccccc2)N(C)C1=O [pd074] ([dA][NMeI]I[NMeF][NMeA]V[NMeL][Sar]A[NMeL]V[NMeF]V[NMeD]-Piperidide; lactam N-14) |  | 0.22 10^-6 cm/sec | 26.9 | 26.9 | 0.22 10^-6 cm/sec
CC[C@@H]1NC(=O)[C@H](CC(C)C)N(C)C(=O)[C@H](C)NC(=O)CN(C)C(=O)[C@H](CC(C)C)N(C)C(=O)CCN(C)C(=O)[C@H](Cc2ccccc2)N(C)C(=O)[C@H]([C@@H](C)CC)NC(=O)[C@H]([C@@H](C)CC)N(C)C(=O)[C@@H](C)NC(=O)C[C@@H](C(=O)N2CCCCC2)N(C)C(=O)[C@H](Cc2ccccc2)N(C)C(=O)[C@H](C(C)C)NC(=O)[C@H](C)N(C)C1=O [pd076] ([dA][NMeI]I[NMeF][NMeβAla][NMeL][Sar]A[NMeL][Abu][NMeA]V[NMeF][NMeD]-Piperidide; lactam N-14) |  | <0.10 10^-6 cm/sec | 10.9 | 18.2 | <0.10 10^-6 cm/sec
